Laboratory results reported in patent publication EP4772513A1, “PI3K-ALPHA INHIBITOR AND USE THEREOF” (TYK Medicines (Zhengzhou), Inc., priority 2023, dated 2025).

Experiments:
[1] = tested on: Human breast cancer cells SK-BR-3 (WT); assay: Cell proliferation inhibition assay (CTG), SK-BR-3 (WT); type: cell-based; conditions: SK-BR-3 (WT) cells, 3 days incubation, CTG readout
Experimental: (§1) Cell Proliferation Inhibition Assay
(§2) 1. Experimental Materials
(§3) II. Experimental Protocol
(§4) • a) Cell suspension was prepared; • b) The medium was removed from the culture flask; • c) The cells were rinsed once with PBS; • d) Trypsin was added for digestion, and the cells were centrifuged and collected; • e) The cells were resuspended in medium, counted and adjusted to an appropriate concentration; • f) 100 µL of cell suspension was added to each well of a 96-well plate. One plate was used for each cell line, which was incubated overnight in a 37 °C, 5% CO2 incubator.
(§5) 2. Treatment of Compounds
(§6) • a) Serial dilutions of the test compounds were prepared: The compound was prepared as a 10 mM stock solution. 18 µL of the stock solution was dissolved in 982 µL of the culture medium containing DMSO, followed by 4-fold serial dilutions in culture medium containing 0.5% DMSO to give 9 concentrations. The concentrations of the diluted compound were as follows: 180000 nM, 45000 nM, 11250 nM, 2812.5 nM, 703.13 nM, 175.78 nM, 43.95 nM, 10.99 nM, and 2.75 nM. • b) After thorough mixing, 20 µL of each compound solution was added to the cell plate containing 100 µL of cells per well. Each concentration was tested in triplicate. Final concentrations of the compound were as follows: 30000 nM, 7500 nM, 1875 nM, 468.75 nM, 117.188 nM, 29.30 nM, 7.32 nM, 1.83 nM, and 0.46 nM. • c) The cells were transferred into the incubator and incubated for 3 days.
(§7) The cell plate was removed, 25 µL of CTG reagent was added to each well of the 96-well plate, the mixture was shook on a plate shaker at room temperature for 10 minutes, and the plate was read.
(§8) The cell survival rate was calculated using the following formula (% Cell Survival): % Cell Survival = 100% × (OD_Sample−OD_LCave)/(OD_HC−OD_LCave) [formula] • OD_HC: Reading of the 0.1‰ DMSO control group • OD_Sample: Reading of cells treated with compound • OD_LCave: Reading of blank medium
(§9) Analyzed by Prism: Dose-response-Inhibition - Log (inhibitor) vs response (three parameters for the best fit).

[2] = tested on: Human breast cancer cells T47D (H1047R); assay: Cell proliferation inhibition assay (CTG), T47D (H1047R); type: cell-based; conditions: 3 days incubation, CTG readout
Experimental: as §1, §2, §3, §4, §5, §6, §7, §8, §9

Compound	IC50 ([1]; Homo sapiens, 72 h)	IC50 ([2]; Homo sapiens, 72 h)	IC50 [1]	IC50 [2]
CC(Nc1ccccc1C(=O)O)c1cc(F)cc2c(=O)n3c(nc12)CN(c1cccnc1)CC3 (single isomer, unassigned) [Compound C15]	> 5 µM	0.5 to 2 µM		
CC(Nc1ccccc1C(=O)O)c1cc(F)cc2c(=O)c3c(oc12)CN(S(=O)(=O)C(C)C)CC3 (single isomer, unassigned) [Compound C39]	> 5 µM	≤ 0.5 µM		
CC(Nc1ccccc1C(=O)O)c1cc(F)cc2c(=O)c3c(oc12)CN(C(=O)N1CCCC1)CC3 (single isomer, unassigned) [Compound C41]	> 5 µM	≤ 0.5 µM		
CC(Nc1ccccc1C(=O)O)c1cc(F)cc2c(=O)c3c(oc12)CN(C(=O)N1CCC1)CC3 (single isomer, unassigned) [Compound C47]	> 5 µM	≤ 0.5 µM		
Cc1cc(C(C)Nc2ccc(Cl)nc2C(=O)O)c2oc3c(c(=O)c2c1)CCN(S(=O)(=O)C(C)C)C3 (single isomer, unassigned) [Compound C49]	> 5 µM	≤ 0.5 µM		
Cc1cc(C(C)Nc2ccccc2C(=O)O)c2oc3c(c(=O)c2c1)CCN(C(=O)N1CCCC1)C3 (single isomer, unassigned) [Compound C50]	> 5 µM	≤ 0.5 µM		
Cc1cc(C(C)Nc2ccccc2C(=O)O)c2oc3c(c(=O)c2c1)CCN(S(=O)(=O)N1CCCC1)C3 (single isomer, unassigned) [Compound C56]	> 5 µM	≤ 0.5 µM		
Cc1cc(C(C)Nc2ccccc2C(=O)O)c2oc3c(c(=O)c2c1)CCN(S(=O)(=O)C1CC1)C3 (single isomer, unassigned) [Compound C59]	> 5 µM	≤ 0.5 µM		
Cc1cc(C(C)Nc2ccccc2C(=O)O)c2oc3c(c(=O)c2c1)CCN(S(=O)(=O)c1ccccc1)C3 (single isomer, unassigned) [Compound C61]	> 5 µM	≤ 0.5 µM		
CC(Nc1ccccc1C(=O)O)c1cc(F)cc2c(=O)c3c(oc12)C(C)N(S(=O)(=O)C(C)C)CC3 (single isomer, unassigned) [Compound C163]	> 5 µM	≤ 0.5 µM		
Cc1cc(C(C)Nc2ccc(Cl)nc2C(=O)O)c2nc3c(c(=O)n2c1)CCN(S(=O)(=O)c1c(C)cnn1C)C3 (single isomer, unassigned) [Compound C184]	> 5 µM	≤ 0.5 µM		
Cc1cc(C(C)Nc2ccccc2C(=O)O)c2nc3c(c(=O)n2c1)CCN(S(=O)(=O)C(C)C)C3 (single isomer, unassigned) [Compound C196]	> 5 µM	≤ 0.5 µM		
Cc1cc(C(C)Nc2ccccc2C(=O)O)c2oc3c(c(=O)c2c1)CCN(C(c1ccccc1)C(F)(F)F)C3 (single isomer, unassigned) [Compound C207]	> 5 µM	≤ 0.5 µM		
Cc1cc(C(C)Nc2ccccc2C(=O)O)c2oc3c(c(=O)c2c1)CCN(C(c1ccccc1)C(F)(F)F)C3 (single isomer, unassigned) [Compound C209]			> 5 µM	≤ 0.5 µM
C[C@@H](Nc1ccc(Cl)nc1C(=O)O)c1cc(Cl)cc2c(=O)c3c(oc12)CN(S(=O)(=O)N1CCOCC1)CC3 [Compound C66]	> 5 µM	≤ 0.5 µM		
C[C@@H](Nc1ccc(Cl)nc1C(=O)O)c1cc(F)cc2c(=O)c3c(oc12)CN(S(=O)(=O)N1CCOCC1)CC3 [Compound C67]	> 5 µM	≤ 0.5 µM		
C[C@@H](Nc1ccc(Cl)nc1C(=O)O)c1cc(F)cc2c(=O)c3c(oc12)CN(S(=O)(=O)C1CC1)CC3 [Compound C68]	> 5 µM	0.5 to 2 µM		
CC(C)S(=O)(=O)N1CCc2c(oc3c([C@@H](C)Nc4ccc(Cl)nc4C(=O)O)cc(F)cc3c2=O)C1 [Compound C72]	> 5 µM	0.5 to 2 µM		
C[C@@H](Nc1ccc(Cl)nc1C(=O)O)c1cc(F)cc2c(=O)c3c(oc12)CN(S(=O)(=O)N1CCC1)CC3 [Compound C73]	> 5 µM	0.5 to 2 µM		

Compound	IC50 ([1]; Homo sapiens, 72 h)	IC50 ([2]; Homo sapiens, 72 h)	IC50 [1]	IC50 [2]
C[C@@H](Nc1ccc(Cl)nc1C(=O)O)c1cc(F)cc2c(=O)c3c(oc12)CN(S(=O)(=O)c1ccccc1)CC3 [Compound C77]	> 5 µM	≤ 0.5 µM		
C[C@@H](Nc1ccccc1C(=O)O)c1cc(F)cc2c(=O)c3c(oc12)CN(S(=O)(=O)C1CC1)CC3 [Compound C78]	> 5 µM	0.5 to 2 µM		
C[C@@H](Nc1ccccc1C(=O)O)c1cc(F)cc2c(=O)c3c(oc12)CN(S(=O)(=O)N1CCOCC1)CC3 [Compound C80]	> 5 µM	≤ 0.5 µM		
Cc1cc([C@@H](C)Nc2ccc(Cl)nc2C(=O)O)c2oc3c(c(=O)c2c1)CCN(S(=O)(=O)N1CCOCC1)C3 [Compound C81]	> 5 µM	0.5 to 2 µM		
Cc1cc([C@@H](C)Nc2ccc(Cl)nc2C(=O)O)c2oc3c(c(=O)c2c1)CCN(S(=O)(=O)c1ccccc1)C3 [Compound C82]	> 5 µM	≤ 0.5 µM		
C[C@@H](Nc1ccc(Cl)nc1C(=O)O)c1cc(F)cc2c(=O)c3c(oc12)CN(C(=O)N1CC(F)C1)CC3 [Compound C83]	> 5 µM	0.5 to 2 µM		
C[C@@H](Nc1ccccc1C(=O)O)c1cc(F)cc2c(=O)c3c(oc12)CN(S(=O)(=O)c1ccccc1)CC3 [Compound C89]	> 5 µM	≤ 0.5 µM		
C[C@@H](Nc1ccc(Cl)nc1C(=O)O)c1cc(F)cc2c(=O)c3c(oc12)CN(S(=O)(=O)c1ccccc1C#N)CC3 [Compound C90]	> 5 µM	≤ 0.5 µM		
C[C@@H](Nc1ccc(Cl)nc1C(=O)O)c1cc(F)cc2c(=O)c3c(oc12)CN(S(=O)(=O)c1cccc(C#N)c1)CC3 [Compound C91]	> 5 µM	0.5 to 2 µM		
C[C@@H](Nc1ccc(Cl)nc1C(=O)O)c1cc(F)cc2c(=O)c3c(oc12)CN(S(=O)(=O)c1ccc(C#N)cc1)CC3 [Compound C92]	> 5 µM	0.5 to 2 µM		
C[C@@H](Nc1ccc(Cl)nc1C(=O)O)c1cc(F)cc2c(=O)c3c(oc12)CN(S(=O)(=O)c1ccccc1F)CC3 [Compound C93]	> 5 µM	≤ 0.5 µM		
C[C@@H](Nc1ccc(Cl)nc1C(=O)O)c1cc(F)cc2c(=O)c3c(oc12)CN(S(=O)(=O)c1cccc(F)c1)CC3 [Compound C94]	> 5 µM	≤ 0.5 µM		
C[C@@H](Nc1ccc(Cl)nc1C(=O)O)c1cc(F)cc2c(=O)c3c(oc12)CN(S(=O)(=O)c1ccc(F)cc1)CC3 [Compound C95]	> 5 µM	≤ 0.5 µM		
COc1ccccc1S(=O)(=O)N1CCc2c(oc3c([C@@H](C)Nc4ccc(Cl)nc4C(=O)O)cc(F)cc3c2=O)C1 [Compound C96]	> 5 µM	≤ 0.5 µM		
COc1cccc(S(=O)(=O)N2CCc3c(oc4c([C@@H](C)Nc5ccc(Cl)nc5C(=O)O)cc(F)cc4c3=O)C2)c1 [Compound C97]	> 5 µM	≤ 0.5 µM		
COc1ccc(S(=O)(=O)N2CCc3c(oc4c([C@@H](C)Nc5ccc(Cl)nc5C(=O)O)cc(F)cc4c3=O)C2)cc1 [Compound C98]	> 5 µM	≤ 0.5 µM		
C[C@@H](Nc1ccc(Cl)nc1C(=O)O)c1cc(F)cc2c(=O)c3c(oc12)CN(S(=O)(=O)c1nccn1C)CC3 [Compound C101]	> 5 µM	0.5 to 2 µM		
C[C@@H](Nc1ccc(Cl)nc1C(=O)O)c1cc(F)cc2c(=O)c3c(oc12)CN(S(=O)(=O)C1CCCC1)CC3 [Compound C108]	> 5 µM	0.5 to 2 µM		
C[C@@H](Nc1ccc(Cl)nc1C(=O)O)c1cc(F)cc2c(=O)c3c(oc12)CN(S(=O)(=O)C1CCCCC1)CC3 [Compound C109]	> 5 µM	≤ 0.5 µM		
